Source: patent US20180200257A1, “METHODS FOR THE TREATMENT OF INFLAMMATORY DISORDERS” (Galapagos NV, priority 2015, published 2018)

Test system: subjects with moderately to severely active RA who have an inadequate response to methotrexate (MTX)
Experiment: Study 2 (monotherapy) - Aspartate Aminotransferase (AST) levels
Type: in vivo, human
Description: Randomized, double-blind, placebo-controlled, multicenter, phase IIb dose finding study of Compound 1 (dosed as a [Compound 1:HCl:3H2O]) administered for 24 weeks as monotherapy to subjects with moderately to severely active rheumatoid arthritis who have an inadequate response to methotrexate alone
Double-blind, placebo-controlled, monotherapy study in subjects with moderately to severely active RA who have an inadequate response to methotrexate (MTX) (oral or parenteral).
280 subjects randomized to one of 3 doses of Compound 1 (dosed as a [Compound 1:HCl:3H2O]) or to placebo, given once daily (q.d.).
Twelve weeks of treatment with Compound 1 (dosed as a [Compound 1:HCl:3H2O]) at 50 mg, 100 mg, or 200 mg q.d.; or placebo. At Week 12, all subjects on placebo and the subjects on the 50 mg dose who have not achieved 20% improvement in swollen joint count (SJC66) and tender joint count (TJC68) will be assigned to 100 mg q.d. in a blinded fashion and will continue treatment until Week 24. Subjects in the other groups will maintain their randomized treatment until Week 24.
AST levels determination is available at Quest Diagnostics, Clinical Trials, Quest House, 125-135 Staines Road, Hounslow, Middlesex, TW3 3JB, United Kingdom under Catalogue n#84450. For Study 3, the data are obtained at BARC Europe, 3B,Industrie Park, Zwijnaarde, B-9052 Ghent, Belgium.
AST catalyzes the transamination of aspartate and 2-oxoglutarate, forming L-glutamate and oxalacetate. The oxalacetate is reduced to L-malate by malate dehydrogenase, whilst NADH is converted to NAD+, measured spectrophotometrically. Guidelines for the AST value have been issued by the association for Clinical Biochemistry and Laboratory Medicine, 130-132 Tooley Street LONDON SE1 2TU, united Kingdom, wherein the AST value should be below 34 U/l in Female and below 45 U/L in male. As disclosed in the respective study protocols for Study 1 or 2, at week 12, depending on the outcome of their treatment, the subjects may be continued in their initial treatment course, or reassigned to another treatment group in a randomized blinded fashion until week 24. Therefore, the number of subjects (N) for the period of either 12 weeks, or 24 weeks is provided to reflect this redistribution at week 12.
Subjects in the other groups maintained their randomized treatment until Week 24.

[1] = 12 weeks results, 50 mg q.d., week 1
[2] = 12 weeks results, 50 mg q.d., week 2
[3] = 12 weeks results, 50 mg q.d., week 4
[4] = 12 weeks results, 50 mg q.d., week 8
[5] = 12 weeks results, 50 mg q.d., week 12
[6] = 12 weeks results, 100 mg q.d., week 1
[7] = 12 weeks results, 100 mg q.d., week 2
[8] = 12 weeks results, 100 mg q.d., week 4
[9] = 12 weeks results, 100 mg q.d., week 8
[10] = 12 weeks results, 100 mg q.d., week 12
[11] = 12 weeks results, 200 mg q.d., week 1
[12] = 12 weeks results, 200 mg q.d., week 2
[13] = 12 weeks results, 200 mg q.d., week 4
[14] = 12 weeks results, 200 mg q.d., week 8
[15] = 12 weeks results, 200 mg q.d., week 12
[16] = 24 weeks results, 50 mg q.d. non responders switching to 100 mg q.d. at week 12, week 1
[17] = 24 weeks results, 50 mg q.d. non responders switching to 100 mg q.d. at week 12, week 2
[18] = 24 weeks results, 50 mg q.d. non responders switching to 100 mg q.d. at week 12, week 4
[19] = 24 weeks results, 50 mg q.d. non responders switching to 100 mg q.d. at week 12, week 8
[20] = 24 weeks results, 50 mg q.d. non responders switching to 100 mg q.d. at week 12, week 12
[21] = 24 weeks results, 50 mg q.d. non responders switching to 100 mg q.d. at week 12, week 16
[22] = 24 weeks results, 50 mg q.d. non responders switching to 100 mg q.d. at week 12, week 20
[23] = 24 weeks results, 50 mg q.d. non responders switching to 100 mg q.d. at week 12, week 24
[24] = 24 weeks results, 50 mg q.d. responders, week 1
[25] = 24 weeks results, 50 mg q.d. responders, week 2

## O=C(Nc1nc2cccc(-c3ccc(CN4CCS(=O)(=O)CC4)cc3)n2n1)C1CC1 [Compound 1, cyclopropanecarboxylic acid {5-[4-(1,1-dioxo-thiomorpholin-4-ylmethyl)-phenyl]-[1,2,4]triazolo[1,5-a]pyridin-2-yl}-amide]
[1]
  Study 2 - AST Mean CFB: −1.8 IU/L
  Study 2 - AST Mean percentage CFB: 0.54%
[2]
  Study 2 - AST Mean CFB: −2.0 IU/L
  Study 2 - AST Mean percentage CFB: 1.54%
[3]
  Study 2 - AST Mean CFB: −1.7 IU/L
  Study 2 - AST Mean percentage CFB: −0.21%
[4]
  Study 2 - AST Mean CFB: −2.5 IU/L
  Study 2 - AST Mean percentage CFB: −0.42%
[5]
  Study 2 - AST Mean CFB: −0.2 IU/L
  Study 2 - AST Mean percentage CFB: 2.69%
[6]
  Study 2 - AST Mean CFB: 0.4 IU/L
  Study 2 - AST Mean percentage CFB: 8.99%
[7]
  Study 2 - AST Mean CFB: 1.3 IU/L
  Study 2 - AST Mean percentage CFB: 9.02%
[8]
  Study 2 - AST Mean CFB: 1.3 IU/L
  Study 2 - AST Mean percentage CFB: 15.05%
[9]
  Study 2 - AST Mean CFB: 1.9 IU/L
  Study 2 - AST Mean percentage CFB: 18.05%
[10]
  Study 2 - AST Mean CFB: 1.9 IU/L
  Study 2 - AST Mean percentage CFB: 16.02%
[11]
  Study 2 - AST Mean CFB: 0.1 IU/L
  Study 2 - AST Mean percentage CFB: 7.59%
[12]
  Study 2 - AST Mean CFB: 0.9 IU/L
  Study 2 - AST Mean percentage CFB: 11.22%
[13]
  Study 2 - AST Mean CFB: 0.8 IU/L
  Study 2 - AST Mean percentage CFB: 13.13%
[14]
  Study 2 - AST Mean CFB: 1.4 IU/L
  Study 2 - AST Mean percentage CFB: 16.67%
[15]
  Study 2 - AST Mean CFB: 1.1 IU/L
  Study 2 - AST Mean percentage CFB: 15.21%
[16]
  Study 2 - AST Mean CFB: −0.4 IU/L
  Study 2 - AST Mean percentage CFB: −1.15%
[17]
  Study 2 - AST Mean CFB: 0.3 IU/L
  Study 2 - AST Mean percentage CFB: 2.57%
[18]
  Study 2 - AST Mean CFB: 0.3 IU/L
  Study 2 - AST Mean percentage CFB: 2.84%
[19]
  Study 2 - AST Mean CFB: 0.0 IU/L
  Study 2 - AST Mean percentage CFB: 1.89%
[20]
  Study 2 - AST Mean CFB: 0.8 IU/L
  Study 2 - AST Mean percentage CFB: 7.36%
[21]
  Study 2 - AST Mean CFB: 0.8 IU/L
  Study 2 - AST Mean percentage CFB: 5.82%
[22]
  Study 2 - AST Mean CFB: 1.8 IU/L
  Study 2 - AST Mean percentage CFB: 13.66%
[23]
  Study 2 - AST Mean CFB: 2.6 IU/L
  Study 2 - AST Mean percentage CFB: 17.42%
[24]
  Study 2 - AST Mean CFB: −2.1 IU/L
  Study 2 - AST Mean percentage CFB: 0.98%
[25]
  Study 2 - AST Mean CFB: −2.6 IU/L
  Study 2 - AST Mean percentage CFB: 1.26%
